According to paper PMC5971447, “Selective inhibition of intestinal guanosine 3′,5′-cyclic monophosphate signaling by small-molecule protein kinase inhibitors” (The Journal of Biological Chemistry, 2018):

What was measured:
[1] = target: T1, cGKII (Homo sapiens, UniProt Q13237); test: […]-ATP peptide (2A3) phosphorylation; type: biochemical; settings: read-out: pIC50 in vitro (converted)
T1 construct: gene PRKG2; recombinant full-length, His-tagged, baculovirus insect cell expression; dimer
T1 sequence (Q13237 2-762): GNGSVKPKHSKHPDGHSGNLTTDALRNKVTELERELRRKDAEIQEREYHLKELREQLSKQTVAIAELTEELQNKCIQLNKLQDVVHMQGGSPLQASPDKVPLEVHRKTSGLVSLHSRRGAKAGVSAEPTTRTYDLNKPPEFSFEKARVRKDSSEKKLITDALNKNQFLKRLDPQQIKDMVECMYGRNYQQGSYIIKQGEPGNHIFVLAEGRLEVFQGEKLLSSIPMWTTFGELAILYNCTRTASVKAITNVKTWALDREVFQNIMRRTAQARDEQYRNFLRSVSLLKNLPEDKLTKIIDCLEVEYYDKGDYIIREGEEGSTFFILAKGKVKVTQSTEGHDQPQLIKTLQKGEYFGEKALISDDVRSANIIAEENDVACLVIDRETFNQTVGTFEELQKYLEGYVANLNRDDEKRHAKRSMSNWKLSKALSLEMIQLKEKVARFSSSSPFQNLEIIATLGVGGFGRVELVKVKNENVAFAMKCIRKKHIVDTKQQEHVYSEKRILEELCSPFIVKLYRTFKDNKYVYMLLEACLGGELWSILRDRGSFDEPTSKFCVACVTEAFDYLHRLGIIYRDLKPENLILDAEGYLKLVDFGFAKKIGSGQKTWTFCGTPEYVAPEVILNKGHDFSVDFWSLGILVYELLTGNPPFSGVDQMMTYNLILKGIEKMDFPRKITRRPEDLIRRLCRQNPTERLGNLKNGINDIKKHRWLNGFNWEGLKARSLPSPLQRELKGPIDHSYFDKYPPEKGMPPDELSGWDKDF

[2] = target: T2, cGKI (Homo sapiens, UniProt Q13976); test: […]-ATP peptide (2A3) phosphorylation; type: biochemical; settings: 50 uM cGMP, pH 7.4, 5 mM MgCl2, 22 C
T2 construct: gene PRKG1; recombinant full-length, commercial (Promega)
T2 sequence (Q13976 2-671): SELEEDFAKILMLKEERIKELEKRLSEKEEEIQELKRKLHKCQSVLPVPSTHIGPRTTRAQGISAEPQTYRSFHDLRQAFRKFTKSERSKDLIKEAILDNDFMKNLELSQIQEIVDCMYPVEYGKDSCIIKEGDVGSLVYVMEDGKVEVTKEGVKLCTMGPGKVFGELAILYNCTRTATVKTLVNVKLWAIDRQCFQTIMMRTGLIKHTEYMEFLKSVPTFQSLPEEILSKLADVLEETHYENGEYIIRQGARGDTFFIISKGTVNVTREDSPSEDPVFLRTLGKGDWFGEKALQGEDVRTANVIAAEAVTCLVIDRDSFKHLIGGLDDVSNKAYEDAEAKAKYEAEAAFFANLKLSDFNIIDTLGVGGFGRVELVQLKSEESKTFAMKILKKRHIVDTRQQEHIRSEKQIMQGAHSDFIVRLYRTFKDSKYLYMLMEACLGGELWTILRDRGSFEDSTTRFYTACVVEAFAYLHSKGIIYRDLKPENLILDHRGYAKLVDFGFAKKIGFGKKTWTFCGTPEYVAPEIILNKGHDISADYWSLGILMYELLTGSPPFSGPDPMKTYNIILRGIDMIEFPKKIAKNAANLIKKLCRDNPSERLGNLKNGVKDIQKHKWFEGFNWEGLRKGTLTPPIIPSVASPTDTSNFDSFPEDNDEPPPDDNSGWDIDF

Row | Compound | IC50 [1] | pIC50 [2]
1 | c1csc(-c2ccnc(NCCc3c[nH]c4ccccc34)n2)c1 [AP-C2] | 6310 nM | –
2 | c1ccc2c(CCNc3nccc(-c4ccc5c(c4)OCCO5)n3)c[nH]c2c1 [AP-C4] | 6310 nM | –
3 | COc1ccc(CCNc2nccc(-c3ccc4ccccc4c3)n2)cc1OC [AP-C1] | 316 nM | –
4 | c1coc(CNc2nccc(-c3ccc(-n4ccnc4)cc3)n2)c1 [AP-C7] | 10000 nM | –
5 | COc1ccc(CCNc2nccc(-c3ccc4c(c3)OCCO4)n2)cc1OC [AP-C3] | 501 nM | –
6 | OCCNc1nccc(-c2ccc(-n3ccnc3)cc2)n1 [AP-C6] | 316 nM | potency of inhibition of cGKI and PKA was markedly lower than of cGKII
7 | C#CCNc1nccc(-c2ccc(-n3ccnc3)cc2)n1 [AP-C5] | 63.1 nM | potency of inhibition of cGKI and PKA was markedly lower than of cGKII
